Results reported in patent US6723699B1, “Treating disorders by application of insulin-like growth factors and analogs” (Cephalon, Inc., priority 1989, dated 2004).

Experiments:
[1] = test system: brain ornithine decarboxylase; test: Induction of brain ornithine decarboxylase after intracerebral injection, 4 day old rats; type: in vivo, rat; settings: 6 hours
Description: The in vivo activity of IGF-I, IGF-II or synthetic peptide derivatives of these molecules was tested using a biochemical marker for CNS neurotrophic activity, the induction of brain ornithine decarboxylase. The induction (i.e. increased activity) of ornithine decarboxylase has been reported to be a general marker for the actions of a variety of trophic factors. (Schwartz et al., Dev. Brain Res. 1:403-413 (1981); Kanje et al., Brain Res. 381:24-28 (1986); Russell et al., Life Sci. 19:1297-1306 (1976); MacDonnell et al. Proc. Natl. Acad. Sci. USA 74, 4681-4684 (1977); […] et al. Proc. Natl. Acad. Sci. USA 82, 4365-4368 (1985)). Sprague-Dawley rats, 4 days old, were injected intracerebrally (in the area of the lateral ventricle) with 5 μl of 0.1 M phosphate-buffered saline (PBS) containing IGF-I, IGF-II or a synthetic peptide derivative (1.25-2.5 μg dose, with 6 animals per treatment group). After 6 hours, the brains were removed, and ornithine decarboxylase was assayed essentially as described by Lewis et al., Proc. Natl. Acad. Sci. USA 75:1021-1023 (1978).

[2] = test system: cultured rat cortical cells; test: [3H]-leucine incorporation in cultured rat cortical cells; type: cell-based; settings: low density 24 hour mixed cortical cultures
Description: The ability of IGF-I and a synthetic derivative of IGF-II (IGF-II(54-67)) to increase the incorporation of [^3H]-leucine and to promote the survival of neurite bearing cells was examined in cultured rat cortical cells (the numbers “54-67” in IGF-II indicate the fragment includes amino acid residues 54-67 of native IGF-II).
Measurements were performed, using standard techniques known to those skilled in the art, on dissociated cortical cells obtained from day 18-19 embryonic rats. Cells were seeded at 1.5×10^4/cm^2 on poly-1-ornithine-laminin coated plastic tissue culture cells in serum-free N2 medium (Bottenstein et al. Proc. Natl. Acad. Sci. U.S.A. 76: 514-517 (1978)). [^3H]-leucine was added to cells at plating for the incorporation assay. Cultures were terminated 24 hours after plating and measured for either [^3H]-leucine incorporation or for the number of neuritic cells by microscopic examination.

[3] = test system: cultured rat septal cells; test: ChAT activity in cultured rat septal cells; type: cell-based
Description: The effect of simultaneous administration of IGF-I and NGF on ChAT activity was assayed in cultured septal neurons. ChAT is the initial enzyme in the synthesis of the neurotransmitter, acetylcholine, and is a specific biochemical marker for cholinergic neurons. Assay of this enzyme may be used as an indication of the effects of IGF (and other factors) on the survival of cholinergic neurons and/or regulation of this enzyme. […] In FIG. 9 open squares represent IGF-I, diamonds indicate IGF-I+2 nM NGF, open circles indicate 2 nM NGF, and the horizontal line at 403 DPM represents uninduced cells. A similar additive effect was seen when saturating concentrations of IGF-I were combined with saturating or sub-maximal concentrations of NGF, as shown in FIG. 10. In FIG. 10 open squares indicate NGF, diamonds indicate NGF+25 nM IGF-I, open circles represent 25 nM IGF-I, and the horizontal line at 554 DPM represents uninduced cells.
Cultured rat septal cell experiments were performed generally as described in Hartikku and Hefti, J. Neuroscience, 8:2967-2985 […], Hayashi and Patel, Dev. Brain Res., 36:109-120 (1987), and as follows.
(§1) Dissociated cell cultures of the septal region of day 17 embryonic rats were prepared by standard techniques known to those skilled in the art, using enzymatic (Dispase, Collaborative Research) dissociation of tissue. Cells were seeded (plated) at 6×10^5 cells/cm^2 in poly-1-ornithine-laminin coated plastic tissue culture wells, and cultured in serum-free N2 medium (Bottenstein et al., 1978) for 5 days without feeding. Control (uninduced) cultures received no added growth factors; induced cultures received the concentrations of IGF-I and NGF indicated in FIGS. 9 and 10 at the time of plating. NGF is commercially available. ChAT was assayed by the method described in McManaman, et al. Dev. Biol. 125:311-320 (1988). AChE staining was performed according to the method of Hartikka and Hefti, J. Neuroscience 8:2967-2985 (1988).

[4] = test system: septal cultures; test: Number of AChE positive cells in rat septal cultures; type: cell-based; settings: 100 nM IGF-I; 4×10^5 cells/cm^2, medium with 10% bovine calf serum
Description: as §1
We have shown that under specific culture conditions (4×10^5 cells/cm^2 in the presence of medium containing 10% bovine calf serum), IGF-I increased the number of AChE positive cells by 3-4 fold over control, growth factor-free cultures, FIG. 12.

[5] = test system: 14.5 day embryonic rat spinal cord neurons; test: Choline acetyltransferase activity in 14.5 day embryonic rat spinal cord neurons, serum-free; type: cell-based; settings: serum-free and insulin-free N2 medium, 48 hr
Description: The activity of IGF-I, IGF-II and IGF-III was assayed on dissociated cultures of 14.5 day embryonic rat spinal cord neurons. The spinal cords were removed from embryos and dissociated in 0.05% trypsin in Dulbecco's Phosphate Buffered Saline (DPBS). Dissociated cells were seeded onto poly-1-ornithine substrates in 96 well microtiter plates at 2×10^5 cells/well in 200 μl of serum-free and insulin-free N2 medium (Bottenstein and Sato, 1979 supra) containing 0.05% bovine serum albumin. After a 48 hr incubation at 37° C. in a humidified atmosphere of 5% CO2, 95% air, cultures were assayed for choline acetyltransferase activity according to a modification (McMananman et al., Dev. Bio., 25:311-320 (1988)) of the technique described by Fonnum (Fonnum, J. Neurochem. 24:405-409 (1975)).

With “GPETLCGAELVDALQFVCGDRGFYFNKPTGYGSSS-RRAPQTGIVDECCFRSCDLRRLEMYCAPLKPAKSA [IGF-I]” the “brain ornithine decarboxylase activity (in words)” value [1] was “dose-dependent increase in brain ornithine decarboxylase activity”, the “[3H]-leucine incorporation (in words)” value [2] was “increased [^3H]-leucine incorporation” and the “ChAT activity % increase over control” value ([3]; concentration not printed (second part of table)) was 44%. For the same substance, the “ChAT activity % increase over control” value ([3]; single growth factor 1.3 nM) was 20%, the “ChAT activity % increase over control” value ([3]; single growth factor 12.5 nM) was 50% and the “ChAT activity % increase over control” value ([3]; single growth factor 25.0 nM) was 37%. For the same substance, the “increase in number of AChE positive cells over control” value [4] was 3-4 fold and the “choline acetyltransferase activity (in words)” value [5] was “substantial, dose-dependent increase in choline acetyltransferase activity”.
